# Laboratory results from ChEMBL document CHEMBL2434880, “Synthesis and assessment of catechol diether compounds as inhibitors of trypanosomal phosphodiesterase B1 (TbrPDEB1)” (Bioorg Med Chem Lett, 2013).
# Biological target: T1, Class 1 phosphodiesterase PDEB1 (Trypanosoma brucei) (UniProt Q8WQX9)
# T1 sequence (whole entry): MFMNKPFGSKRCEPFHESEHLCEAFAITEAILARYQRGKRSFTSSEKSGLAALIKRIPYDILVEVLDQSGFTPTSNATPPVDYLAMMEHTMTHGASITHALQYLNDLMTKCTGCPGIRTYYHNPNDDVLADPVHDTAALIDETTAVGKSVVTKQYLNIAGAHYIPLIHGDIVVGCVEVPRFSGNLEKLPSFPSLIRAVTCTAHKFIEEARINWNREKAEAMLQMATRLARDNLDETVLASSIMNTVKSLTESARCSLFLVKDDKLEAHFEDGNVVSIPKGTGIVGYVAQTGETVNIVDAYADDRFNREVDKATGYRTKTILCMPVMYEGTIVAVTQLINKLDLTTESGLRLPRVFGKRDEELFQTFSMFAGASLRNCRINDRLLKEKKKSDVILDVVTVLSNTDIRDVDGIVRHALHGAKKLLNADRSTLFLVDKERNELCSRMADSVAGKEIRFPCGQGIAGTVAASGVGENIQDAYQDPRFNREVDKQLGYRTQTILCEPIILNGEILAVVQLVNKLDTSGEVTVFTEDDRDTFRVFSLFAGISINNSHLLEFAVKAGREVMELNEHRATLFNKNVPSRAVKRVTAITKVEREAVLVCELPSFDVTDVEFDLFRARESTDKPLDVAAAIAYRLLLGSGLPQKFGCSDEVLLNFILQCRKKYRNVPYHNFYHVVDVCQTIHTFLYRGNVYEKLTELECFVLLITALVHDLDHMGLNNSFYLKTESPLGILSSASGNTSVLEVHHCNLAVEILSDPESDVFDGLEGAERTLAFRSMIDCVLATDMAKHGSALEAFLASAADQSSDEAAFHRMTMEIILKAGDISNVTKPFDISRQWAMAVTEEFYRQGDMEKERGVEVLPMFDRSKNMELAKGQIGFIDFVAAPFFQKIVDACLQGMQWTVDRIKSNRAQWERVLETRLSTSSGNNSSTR
# Assay: Inhibition of Trypanosoma brucei recombinant PDEB1 at 10 uM by spectrophotometric analysis relative to control
row,SMILES,inhibition [%]
1,COc1ccc(-c2ccncc2)cc1OC1CCCC1,18.7
2,COc1ccc(-c2ccnc(NC3CCCC3)n2)cc1OC1CCCC1,12.7
3,COc1ccc(-c2ccnc(NC3CCC3)n2)cc1OCc1ccccc1,16.1
4,COc1ccc(-c2ccnc(NCc3ccccc3)n2)cc1OC1CCCC1,32.9
5,COc1ccc(-c2ccnc(NC3CCCCC3)n2)cc1OC1CCCC1,29.8
6,COc1ccc(-c2ccnc(NCc3ccccc3)n2)cc1OCc1ccccc1,18.5
7,COc1ccc(-c2ccnc(N(C)C)n2)cc1OCc1ccccc1,14.5
8,COc1ccc(-c2ccnc(NCc3ccccc3)c2)cc1OCc1ccccc1,7.2
9,COc1ccc(-c2ccc(OC)c(OC3CCCC3)c2)cn1,7.6
10,COc1ccc(-c2ccnc(N(C)C)c2)cc1OCc1ccccc1,48
11,COc1ccc(-c2ccnc(NC3CCCCC3)c2)cc1OC1CCCC1,27.1
12,COc1ccc(-c2ccnc(NC3CCCCCC3)n2)cc1OCc1ccccc1,22.3

# Now from value to molecule:
row,inhibition [%],SMILES
1,21.8,COc1ccc(-c2ccnc(NC3CCCC3)n2)cc1OCc1ccccc1
2,20.6,COc1ccc(-c2ccnc(NC3CCCCCC3)n2)cc1OC1CCCC1
3,15.8,COc1ccc(-c2ccnc(N(C)C)n2)cc1OC1CCCC1
4,34,COc1ccc(-c2ccnc(N(C)C)c2)cc1OC1CCCC1
5,28.4,COc1ccc(-c2ccnc(NC3CCCCC3)c2)cc1OCc1ccccc1
6,3.9,COc1ccc(-c2ccnc(NC3CCC3)n2)cc1OC1CCCC1
7,69.1,COc1ccc(-c2cccc3ncccc23)cc1OC1CCCC1
8,23.2,COc1ccc(-c2ccnc(NC3CCCCC3)n2)cc1OCc1ccccc1

# System: not listed separately
# Assay: Inhibition of Trypanosoma brucei PDEB2
row,SMILES,IC50 [nM]
1,COc1ccc(C2=NN(C3CCCCCC3)C(=O)[C@H]3CC=CC[C@@H]23)cc1OCCCCOc1ccc(-c2nn[nH]n2)cc1,6
2,COc1ccc(C2=NN(C3CCCC3)C(=O)[C@H]3CC=CC[C@@H]23)cc1OC1CCCC1,544

# Biological target: T2, Class 1 phosphodiesterase PDEB1 (Trypanosoma brucei, UniProt Q8WQX9)
# T2 sequence (Q8WQX9 whole entry): T1 sequence (whole entry)
# Assay: Inhibition of Trypanosoma brucei PDEB1
row,IC50 [nM],SMILES
1,278,COc1ccc(C2=NN(C3CCCC3)C(=O)[C@H]3CC=CC[C@@H]23)cc1OC1CCCC1

# Biological target: Phosphodiesterase 4 (Homo sapiens, UniProt P27815+Q08499+Q07343+Q08493)
# Assay: Inhibition of human PDE4
# Assay type: protein assay
row,IC50 [nM],SMILES
1,0.6,COc1ccc(C2=NN(C3CCCCCC3)C(=O)[C@H]3CC=CC[C@@H]23)cc1OCCCCOc1ccc(-c2nn[nH]n2)cc1
2,10,COc1ccc(C2=NN(C3CCCC3)C(=O)[C@H]3CC=CC[C@@H]23)cc1OC1CCCC1

# System: Trypanosoma brucei brucei
# Assay: Antitrypanosomal activity against Trypanosoma brucei brucei
# Assay type: functional, organism-based
row,EC50 [nM],SMILES
1,80,COc1ccc(C2=NN(C3CCCCCC3)C(=O)[C@H]3CC=CC[C@@H]23)cc1OCCCCOc1ccc(-c2nn[nH]n2)cc1
